This note sets out measurements from US10508104B2, “6-hydroxy-5-(phenyl/heteroarylsulfonyl)pyrimidin-4(1H)-one as APJ agonists” (Bristol-Myers Squibb Company, priority 2016, dated 2019).

Sequence of human APJ receptor (P35414 whole entry): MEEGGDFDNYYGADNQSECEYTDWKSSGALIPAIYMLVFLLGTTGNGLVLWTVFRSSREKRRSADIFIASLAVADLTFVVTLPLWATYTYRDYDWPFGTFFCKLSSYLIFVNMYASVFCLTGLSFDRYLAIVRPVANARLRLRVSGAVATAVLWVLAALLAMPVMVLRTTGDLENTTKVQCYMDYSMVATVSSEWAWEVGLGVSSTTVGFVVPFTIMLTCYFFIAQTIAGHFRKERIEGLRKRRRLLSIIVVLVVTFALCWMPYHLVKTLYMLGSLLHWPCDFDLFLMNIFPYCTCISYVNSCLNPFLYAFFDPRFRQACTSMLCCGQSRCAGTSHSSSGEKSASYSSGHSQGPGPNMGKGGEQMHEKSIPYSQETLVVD

In the assay the target is human APJ receptor (Homo sapiens (Human), UniProt P35414). Briefly: Intracellular cAMP accumulation assay (APJ hcAMP, HTRF). Format: cell-based. As to conditions: human APJ, intracellular cAMP accumulation; read-out: Human APJ cAMP EC50 Potency range. The method in brief:
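HEK293 cells stably expressing human APJ, 5,000 per well, incubated 30 min at rt with compound, […] and 2 μM forskolin. cAMP measured by HTRF against a cAMP standard curve as inhibition of forskolin-driven production. EC50 from variable-slope sigmoidal fit.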
Background: Cyclic AMP is a second messenger, typically raised through Gs and lowered through Gi signalling.
By EC50 is commonly meant the concentration that produces a half-maximal response. `CCCCc1nc(=O)c(S(=O)(=O)c2ccc(-c3ccnc(F)c3C)cc2)c(O)n1[C@H](C)c1cccc(C#N)c1` [Example 159, 3-[(1R)-1-{2-butyl-5-[4-(2-fluoro-3-methylpyridin-4-yl)benzenesulfonyl]-6-hydroxy-4-oxo-1,4-dihydropyrimidin-1-yl}ethyl]benzonitrile]: the concentration for a half-maximal effect (EC50) fell in the range of 0.01 to 10 nM.
As to `CCCCc1nc(=O)c(S(=O)(=O)c2ccc(-c3cncc(C)c3)cc2)c(O)n1[C@H]1CCc2ccccc21` [Example 160, 2-butyl-1-[(1S)-2,3-dihydro-1H-inden-1-yl]-6-hydroxy-5-[4-(5-methylpyridin-3-yl)benzenesulfonyl]-1,4-dihydropyrimidin-4-one], the EC50 was in the range of 100 to 300 nM.
Take `CCCCc1nc(=O)c(S(=O)(=O)c2ccc(-c3cc(C)nc(C)c3)cc2)c(O)n1[C@H]1CCc2ccccc21` [Example 161, 2-butyl-1-[(1S)-2,3-dihydro-1H-inden-1-yl]-5-[4-(2,6-dimethylpyridin-4-yl)benzenesulfonyl]-6-hydroxy-1,4-dihydropyrimidin-4-one]: the EC50 lay within 100 to 300 nM.
For `CCCCc1nc(=O)c(S(=O)(=O)c2ccc(-c3cncc(F)c3)cc2)c(O)n1[C@H](C)c1cccc(C#N)c1` [Example 162, 3-[(1R)-1-{2-butyl-5-[4-(5-fluoropyridin-3-yl)benzenesulfonyl]-6-hydroxy-4-oxo-1,4-dihydropyrimidin-1-yl}ethyl]benzonitrile] the value was 10 to 100 nM; for `CCCCc1nc(=O)c(S(=O)(=O)c2ccc(-c3ccc(F)nc3)cc2)c(O)n1[C@H]1CCc2ccccc21` [Example 163, 2-butyl-1-[(1S)-2,3-dihydro-1H-inden-1-yl]-5-[4-(6-fluoropyridin-3-yl)benzenesulfonyl]-6-hydroxy-1,4-dihydropyrimidin-4-one], 0.01 to 10 nM.
Under `CCCCc1nc(=O)c(S(=O)(=O)c2ccc(-c3ccnc(F)c3C)cc2)c(O)n1[C@H]1CCc2ccccc21` [Example 164, 2-butyl-1-[(1S)-2,3-dihydro-1H-inden-1-yl]-5-[4-(2-fluoro-3-methylpyridin-4-yl)benzenesulfonyl]-6-hydroxy-1,4-dihydropyrimidin-4-one] stands 0.01 to 10 nM; under `CCCCc1nc(=O)c(S(=O)(=O)c2ccc(-c3cccnc3C)cc2)c(O)n1[C@@H](CC)c1cccc(OC)c1` [Example 165, 2-butyl-6-hydroxy-1-[(1S)-1-(3-methoxyphenyl)propyl]-5-[4-(2-methylpyridin-3-yl)benzenesulfonyl]-1,4-dihydropyrimidin-4-one], 0.01 to 10 nM.
Turning to `CCCCc1nc(=O)c(S(=O)(=O)c2ccc(-c3ccc(F)nc3)cc2)c(O)n1[C@H](C)c1cccc(C#N)c1` [Example 166, 3-[(1R)-1-{2-butyl-5-[4-(6-fluoropyridin-3-yl)benzenesulfonyl]-6-hydroxy-4-oxo-1,4-dihydropyrimidin-1-yl}ethyl]benzonitrile], the EC50 is 10 to 100 nM.
Consider `CCCCc1nc(=O)c(S(=O)(=O)c2ccc(-c3ccc(OC)nc3C)cc2)c(O)n1[C@H]1CCc2ccccc21` [Example 167, 2-butyl-1-[(1S)-2,3-dihydro-1H-inden-1-yl]-6-hydroxy-5-[4-(6-methoxy-2-methylpyridin-3-yl)benzenesulfonyl]-1,4-dihydropyrimidin-4-one], for which the EC50 lay in the range of 0.01 to 10 nM.
Turning to `CCCCc1nc(=O)c(S(=O)(=O)c2ccc(-c3cncc(F)c3)cc2)c(O)n1[C@H]1CCc2ccccc21` [Example 168, 2-butyl-1-[(1S)-2,3-dihydro-1H-inden-1-yl]-5-[4-(5-fluoropyridin-3-yl)benzenesulfonyl]-6-hydroxy-1,4-dihydropyrimidin-4-one], the 50% effective concentration (EC50) is 0.01 to 10 nM.
As to `CCCCc1nc(=O)c(S(=O)(=O)c2ccc(-c3ccnc(F)c3C)cc2)c(O)n1[C@@H](CC)c1cccc(OC)c1` [Example 169, 2-butyl-5-[4-(2-fluoro-3-methylpyridin-4-yl)benzenesulfonyl]-6-hydroxy-1-[(1S)-1-(3-methoxyphenyl)propyl]-1,4-dihydropyrimidin-4-one], the EC50 fell in the range of 0.01 to 10 nM.
In the case of `CCCCc1nc(=O)c(S(=O)(=O)c2ccc(-c3cnc(F)cc3C)cc2)c(O)n1[C@H]1CCc2ccccc21` [Example 170, 2-butyl-1-[(1S)-2,3-dihydro-1H-inden-1-yl]-5-[4-(6-fluoro-4-methylpyridin-3-yl)benzenesulfonyl]-6-hydroxy-1,4-dihydropyrimidin-4-one], the 50% effective concentration (EC50) fell in the range of 0.01 to 10 nM.
As to `CCCCc1nc(=O)c(S(=O)(=O)c2ccc(-c3ccc(F)nc3C)cc2)c(O)n1[C@H]1CCc2ccccc21` [Example 171, 2-butyl-1-[(1S)-2,3-dihydro-1H-inden-1-yl]-5-[4-(6-fluoro-2-methylpyridin-3-yl)benzenesulfonyl]-6-hydroxy-1,4-dihydropyrimidin-4-one], the concentration for a half-maximal effect (EC50) lay in the range of 0.01 to 10 nM.
For `CCCc1nc(=O)c(S(=O)(=O)c2ccc(-c3cncc(F)c3)cc2)c(O)n1[C@@H](COC)c1ccccc1` [Example 172, 5-[4-(5-fluoropyridin-3-yl)benzenesulfonyl]-6-hydroxy-1-[(1R)-2-methoxy-1-phenylethyl]-2-propyl-1,4-dihydropyrimidin-4-one] the value was 0.01 to 10 nM; for `CCCc1nc(=O)c(S(=O)(=O)c2ccc(-c3cccnc3C)cc2)c(O)n1[C@@H](COC)c1ccccc1` [Example 173, 6-hydroxy-1-[(1R)-2-methoxy-1-phenylethyl]-5-[4-(2-methylpyridin-3-yl)benzenesulfonyl]-2-propyl-1,4-dihydropyrimidin-4-one], 0.01 to 10 nM; for `CCCc1nc(=O)c(S(=O)(=O)c2ccc(-c3ccc(F)nc3)cc2)c(O)n1[C@@H](COC)c1ccccc1` [Example 174, 5-[4-(6-fluoropyridin-3-yl)benzenesulfonyl]-6-hydroxy-1-[(1R)-2-methoxy-1-phenylethyl]-2-propyl-1,4-dihydropyrimidin-4-one], 0.01 to 10 nM.
Consider `CCCc1nc(=O)c(S(=O)(=O)c2ccc(-c3ccncc3C)cc2)c(O)n1[C@@H](COC)c1ccccc1` [Example 175, 6-hydroxy-1-[(1R)-2-methoxy-1-phenylethyl]-5-[4-(3-methylpyridin-4-yl)benzenesulfonyl]-2-propyl-1,4-dihydropyrimidin-4-one], for which the EC50 was in the range of 0.01 to 10 nM.
In the case of `CCCc1nc(=O)c(S(=O)(=O)c2ccc(-c3ccnc(F)c3C)cc2)c(O)n1[C@@H](COC)c1ccccc1` [Example 176, 5-[4-(2-fluoro-3-methylpyridin-4-yl)benzenesulfonyl]-6-hydroxy-1-[(1R)-2-methoxy-1-phenylethyl]-2-propyl-1,4-dihydropyrimidin-4-one], the 50% effective concentration (EC50) lay in the range of 0.01 to 10 nM.
For `CCCc1nc(=O)c(S(=O)(=O)c2ccc(-c3ccc(F)nc3C)cc2)c(O)n1[C@@H](COC)c1ccccc1` [Example 177, 5-[4-(6-fluoro-2-methylpyridin-3-yl)benzenesulfonyl]-6-hydroxy-1-[(1R)-2-methoxy-1-phenylethyl]-2-propyl-1,4-dihydropyrimidin-4-one], the EC50 is 0.01 to 10 nM.
`COC[C@@H](c1ccccc1)n1c(CC2CC2)nc(=O)c(S(=O)(=O)c2ccc(-c3ccncc3C)cc2)c1O` [Example 178, 2-(cyclopropylmethyl)-6-hydroxy-1-[(1R)-2-methoxy-1-phenylethyl]-5-[4-(3-methylpyridin-4-yl)benzenesulfonyl]-1,4-dihydropyrimidin-4-one]: the EC50 fell in the range of 0.01 to 10 nM.
